The text below walks through data of patent publication US20120282224A1, “MARKERS ASSOCIATED WITH RIBAVIRIN-INDUCED ANEMIA” (priority 2009, published 2012).

For series [1] the following is noted: human, in vivo, 4 weeks. The source says:
In order to identify genetic contributions to treatment response, the inventors carried out a genome-wide association study on genomic samples obtained from the IDEAL study, the design of which was reported in McHutchison et al., J. Viral Hepatol., Vol. 15, No. 7, July 2008, pp. 475-481). Briefly, in the IDEAL study, treatment-naive patients chronically infected with HCV genotype 1 were randomized (1:1:1) to receive one of the following 48-week treatment regimens: peginterferon alfa-2b (PEG2b) at 1.5 mcg/kg/week plus ribavirin (RBV); PEG2b at 1.0 mcg/kg/week plus RBV; or peginterferon alfa-2a (PEG2a) at 180 meg/week+RBV. In the PEG2b regimens, patients weighing 40-65 kg received 800 mg/day RBV; patients weighing more than 65 and up to 85 kg received 1000 mg/day RBV; patients weighing more than 85 and up to 105 kg received 1200 mg/day RBV; and patients weighing more than 105 kg received 1400 mg/day RBV). In the PEG2a regimen patients weighing <75 kg received 1000 mg/day of RBV while patients weighing ≧75 kg received 1200 mg/day of RBV. Hemoglobin values were measured at baseline (before the first dose of treatment), at week 2, 4, 8, 12, and then every 6 weeks up to treatment completion (48 weeks total). Follow-up measures were obtained at 4, 12 and 24 weeks post-treatment. […]

Another series relates to erythrocytes. The settings on record: erythrocytes versus plasma; cited from earlier work.
The conditions of series [2]: taribavirin with PegIntron (peginterferon alfa-2b), clinical trials; cited from earlier work.

As for `NC(=O)c1ncn([C@@H]2O[C@H](CO)[C@@H](O)[C@H]2O)n1` [RBV, 1-[(2R,3R,4S,5R)-3,4-dihydroxy-5-(hydroxymethyl)oxolan-2-yl]-1H-1,2,4-triazole-3-carboxamide], the “patients with Hb concentrations <10 g/dL (severe anemia)” value in series [1] came to 13%. Turning to `NC(=O)c1ncn([C@@H]2O[C@H](COP(=O)(O)OP(=O)(O)OP(=O)(O)O)[C@@H](O)[C@H]2O)n1` [RTP], the “RTP concentration in erythrocytes relative to plasma” value in the series on erythrocytes was 60 fold. For the compound `N=C(N)c1ncn([C@@H]2O[C@H](CO)[C@@H](O)[C@H]2O)n1` [taribavirin, 1-(β-D-Ribofuranosyl)-1,2,4-triazole-3-carboximide], in series [2], the “anemia compared with patients treated with ribavirin and PegIntron” value is “less anemia”.
